Measured values published in paper PMC4640567, “Cinnamic Acid Bornyl Ester Derivatives from Valeriana wallichii Exhibit Antileishmanial In Vivo Activity in Leishmania major-Infected BALB/c Mice” (PLoS ONE, 2015).

Columns and labels:
L. major promastigotes [1] = tested on: L. major promastigotes; set-up: method as in PMID 25834987; details: cited from earlier work
L. major promastigotes [2] = experiment: Diff-Quik staining and transmitted light microscopy, cell morphology; assay type: cell-based, Leishmania major; details: 122.7 μM
Procedure: (§1) L. major parasites harvested from blood agar cultures were washed twice with Dulbecco’s phosphate-buffered saline (DPBS; Invitrogen, Darmstadt, Germany) and centrifuged at 3.000 × g for 10 min. The pellet was suspended in RPMI 1640 medium at a final concentration of 1 × 10^8 cells/ml. Cells were treated with 1% DMSO, 122.7 μM miltefosine (1-hexadecylphorylcholine; apoptosis inducer), or 100 μM of the tested compounds 1 and 2 in a final volume of 200 μl in 96 well plates. Samples were incubated at 27°C in 5% CO2 for several time points between 30 min and 24 h. Transmitted light microscopic, transmission electron microscopic (TEM), and flow cytometric techniques were used to find phenotypic patterns caused by the treatment with the tested compounds.
After incubation for 30 min, 1 h, 2 h, 4 h, and 24 h in the presence of the tested compounds 1 and 2, promastigotes were harvested and centrifuged in a Cytospin 3 centrifuge (Shandon, Frankfurt, Germany) on microscope slides at 253 × g for 5 min at room temperature (RT). Cytospin preparations of cells were stained using the Differential Quick Stain (Diff-Quik) dye (Medion Diagnostics AG, Duedingen, Switzerland), according to the manufacturers’ protocol with some modifications. Diff-Quik stains the leishmanial nuclei and the kinetoplasts dark purple and the cytoplasm light purple allowing the observation of phenotypic changes within the parasite. Briefly, air-dried cells were fixed by dipping the slides 5 times for 3 seconds in fixative solution. Subsequently the slides were stained with Solution I following Solution II (from Diff-Quik kit) and air-dried between each staining steps. Finally, the samples were rapidly dipped once in ultra-pure water (produced by a TKA purification system apparatus, Niederelbert, Germany) to remove excessive staining solutions. The air-dried cells were analyzed by transmitted light microscopy under a 50× objective on a Nikon ECLIPSE 50i microscope equipped with a digital camera (Nikon, Tokyo, Japan). The images were processed using NIS Elements D software (Nikon).

L. major promastigotes [3] = experiment: Annexin V / propidium iodide flow cytometry, cell death phenotype; assay type: cell-based, Leishmania major; details: 122.7 μM
Procedure: as §1
The loss of membrane integrity and translocation of phosphatidylserine (PS) to the outside of the cellular membrane can be determined by annexin V (AV) and propidium iodide (PI) staining. Double staining with AV-fluorescein isothiocyanate (FITC) and PI during flow cytometry analysis leads to discrimination between four populations: double negatives or alive cells (AV^-/PI^-), double positive or late necrotic/late apoptotic cells (AV^+/PI^+), PI-positive and AV-negative or early necrotic cells (AV^-/PI^+), and PI-negative and AV-positive or early apoptotic cells (AV^+/PI^-).
Parasites were harvested after incubation for 6 h, 10 h, and 24 h in the presence of compounds 1, 2 and miltefosine (Cayman Chemical Company, MI, USA), respectively, the latter serving as positive control for the induction of apoptotic cell death. DMSO was used as solvent control. Cell staining was performed using an AV-FITC Apoptosis detection kit (Sigma-Aldrich, Saint Louis, MO, USA). Cells were harvested, washed and suspended in 500 μL of binding buffer, 5 μL of AV-FITC and 10 μl of PI. The cells were incubated for 10 min in the dark at RT. Finally, stained samples were immediately analyzed by flow cytometry using MACSQuant analyzer or a flow cytometer (Becton Dickinson, San José, CA, USA).

L. major promastigotes [4] = tested on: L. major promastigotes; set-up: method as in PMID 24473204; details: positive control; cited from earlier work
L. major amastigotes = tested on: L. major amastigotes; set-up: method as in PMID 24473204; details: positive control; cited from earlier work
[5] = AlamarBlue cytotoxicity, BMDM; assay type: cell-based; details: bone marrow-derived macrophages (BMDM)
Procedure: BMDM were generated in complete RPMI medium as described previously. On day six, the cytotoxicity against 2 × 10^5 cells/ml was tested at increasing concentrations of compounds 1 and 2 for 48 h. Human embryonic kidney HEK 293 T cells (ATCC, Wesel, Germany) were cultured in Dulbecco´s Modified Eagle Medium (DMEM) (Life Technologies, Darmstadt, Germany), with 10% FCS (PAA Laboratories, Germany). According to the standard operating procedures (SOP) within the Collaborative Research Center 630 (SFB 630) 2 × 10^4 HEK 293 T cells/ml were tested at increasing concentrations of compounds 1 and 2 for 48 h. Human liver carcinoma HepG2 cells (ATCC) were cultured in RPMI medium (Gibco) with 10% FCS. 1 × 10^5 cells/ml HepG2 were tested at increasing concentrations of 1 and 2 for 72 h according to the SOPs. The AlamarBlue assay was performed as described above for L. major parasites.

CC1(C)C2CCC1(C)C(OC(=O)/C=C/c1ccc(O)c(O)c1)C2 (stereo not shown) [caffeic acid bornyl ester]
Antileishmanial activity against L. major promastigotes (L. major promastigotes [1]): good antileishmanial activity

CCCCCCCCCCCCCCCCOP(=O)([O-])OCC[N+](C)(C)C [Miltefosine, 1-hexadecylphorylcholine, reference compound]
Time after which morphological changes and cell disruption were promoted (L. major promastigotes [2]): 2 h | LL: live cells (AV-/PI-) (L. major promastigotes [3]; 6 h): 35.5% | LR: early apoptotic cells (AV+/PI-) (L. major promastigotes [3]; 6 h): 8.2% | UL: early necrotic cells (AV-/PI+) (L. major promastigotes [3]; 6 h): 11.8% | UR: necrotic/late apoptotic cells (AV+/PI+) (L. major promastigotes [3]; 6 h): 44.5% | LR: early apoptotic cells (AV+/PI-) (L. major promastigotes [3]; 6 h, listed as miltefosine): 8% | UR: necrotic/late apoptotic cells (AV+/PI+) (L. major promastigotes [3]; 6 h, listed as miltefosine): 45% | LL: live cells (AV-/PI-) (L. major promastigotes [3]; 10 h): 15.9% | LR: early apoptotic cells (AV+/PI-) (L. major promastigotes [3]; 10 h): 13.2% | UL: early necrotic cells (AV-/PI+) (L. major promastigotes [3]; 10 h): 11.3% | UR: necrotic/late apoptotic cells (AV+/PI+) (L. major promastigotes [3]; 10 h): 59.6% | LL: live cells (AV-/PI-) (L. major promastigotes [3]; 24 h): 6.3% | LR: early apoptotic cells (AV+/PI-) (L. major promastigotes [3]; 24 h): 13.0% | UL: early necrotic cells (AV-/PI+) (L. major promastigotes [3]; 24 h): 5.5% | UR: necrotic/late apoptotic cells (AV+/PI+) (L. major promastigotes [3]; 24 h): 75.2% | LR: early apoptotic cells (AV+/PI-) (L. major promastigotes [3]; 24 h, listed as miltefosine): 13% | UR: necrotic/late apoptotic cells (AV+/PI+) (L. major promastigotes [3]; 24 h, listed as miltefosine): 75% | Promastigotes with affinity of the parasitic surface towards AV (L. major promastigotes [3]; within 24 h): 88% | IC50 (L. major promastigotes [4]): 36.2 µM | IC50 (L. major amastigotes): 33 µM | IC50 at 48 h [5]: 65.5 µM
